Tests used:
Format in all cases: in vivo
corn (Zea mays) [1] = experiment: Test G Pre-Emergence Protocol; conditions: Zea mays, pre-emergence, 312 h, evaluated after 13 days; for plant injury at 15.625 g/ha: 15.625 g ai/ha; for plant injury at 15.625 g/ha / plant injury at 250 g/ha: read-out: Corn damage rating (100=total damage to plant; 0=no damage to plant); for plant injury at 62.5 g/ha: 62.5 g ai/ha, 100=total damage to plant, 0=no damage to plant, read-out: plant damage rating, Corn; for plant injury at 250 g/ha: 250 g ai/ha
Procedure, shortened: (§1)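 Under a 24/16° C day/night regime with 14 h light and 65% humidity, sown pots were sprayed after one day with compound (15.625, 62.5 or 250 g/ha; 50:50 acetone/water, 0.5% Tween 20). Damage was assessed visually 13 days later, 0 to 100.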

[2] = tested on: redroot pigweed (Amaranthus retroflexus); experiment: Test G Pre-Emergence Protocol; conditions: Amaranthus retroflexus, pre-emergence, 312 h, evaluated after 13 days; for pest or weed control at 15.625 g/ha: 15.625 g ai/ha; for pest or weed control at 15.625 g/ha / pest or weed control at 250 g/ha: read-out: Pigweed, Redroot damage rating (100=total damage to plant; 0=no damage to plant); for pest or weed control at 62.5 g/ha: 62.5 g ai/ha, 100=total damage to plant, 0=no damage to plant, read-out: plant damage rating, Pigweed, Redroot; for pest or weed control at 250 g/ha: 250 g ai/ha
Procedure, shortened: as §1

[3] = tested on: barnyardgrass (Echinochloa crus-galli); experiment: Test G Pre-Emergence Protocol; conditions: Echinochloa crus-galli, pre-emergence, 312 h, evaluated after 13 days; for pest or weed control at 15.625 g/ha: 15.625 g ai/ha, read-out: Barnyard grass damage rating (100=total damage to plant; 0=no damage to plant); for pest or weed control at 62.5 g/ha: 62.5 g ai/ha, 100=total damage to plant, 0=no damage to plant, read-out: plant damage rating, Barnyardgrass; for pest or weed control at 250 g/ha: 250 g ai/ha, read-out: Barnyardgrass damage rating (100=total damage to plant; 0=no damage to plant)
Procedure, shortened: as §1

[4] = tested on: ivy-leaved morning glory (Ipomoea hederacea); experiment: Test G Pre-Emergence Protocol; conditions: Ipomoea, pre-emergence, 312 h, evaluated after 13 days; for pest or weed control at 15.625 g/ha: 15.625 g ai/ha, read-out: Morning-glory, Ivy-leaved damage rating (100=total damage to plant; 0=no damage to plant); for pest or weed control at 62.5 g/ha: 62.5 g ai/ha, 100=total damage to plant, 0=no damage to plant, read-out: plant damage rating, Morningglory, Ivy-leaved; for pest or weed control at 250 g/ha: 250 g ai/ha, read-out: Morningglory, Ivy-leaved damage rating (100=total damage to plant; 0=no damage to plant)
Procedure, shortened: as §1

[5] = tested on: giant foxtail (Setaria faberi); experiment: Test G Pre-Emergence Protocol; conditions: Setaria faberi, pre-emergence, 312 h, evaluated after 13 days; for pest or weed control at 15.625 g/ha: 15.625 g ai/ha; for pest or weed control at 15.625 g/ha / pest or weed control at 250 g/ha: read-out: Foxtail, Giant damage rating (100=total damage to plant; 0=no damage to plant); for pest or weed control at 62.5 g/ha: 62.5 g ai/ha, 100=total damage to plant, 0=no damage to plant, read-out: plant damage rating, Foxtail, Giant; for pest or weed control at 250 g/ha: 250 g ai/ha
Procedure, shortened: as §1

[6] = tested on: velvetleaf (Abutilon theophrasti); experiment: Test G Pre-Emergence Protocol; conditions: Abutilon theophrasti, pre-emergence, 312 h, evaluated after 13 days; for pest or weed control at 15.625 g/ha: 15.625 g ai/ha; for pest or weed control at 15.625 g/ha / pest or weed control at 250 g/ha: read-out: Velvetleaf damage rating (100=total damage to plant; 0=no damage to plant); for pest or weed control at 62.5 g/ha: 62.5 g ai/ha, 100=total damage to plant, 0=no damage to plant, read-out: plant damage rating, Velvetleaf; for pest or weed control at 250 g/ha: 250 g ai/ha
Procedure, shortened: as §1

corn (Zea mays) [7] = experiment: Test G Post-Emergence Protocol; conditions: Zea mays, post-emergence, 312 h; for plant injury at 15.625 g/ha: 15.625 g ai/ha, evaluated after 13 days (100=total damage to plant; 0=no damage to plant), read-out: Corn damage rating; for plant injury at 62.5 g/ha: 62.5 g ai/ha, read-out: Corn damage rating (100=total damage to plant; 0=no damage to plant); for plant injury at 62.5 g/ha / plant injury at 250 g/ha: evaluated after 13 days; for plant injury at 250 g/ha: 250 g ai/ha, read-out: damage to plant, Corn (100=total damage to plant; 0=no damage to plant)
Procedure, shortened: (§2)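 Seedlings grown 8 days in soil in a glasshouse (24/16 °C day/night, 14 h light, 65% humidity) were sprayed post-emergence with compound in acetone/water 50:50 plus 0.5% Tween 20 at 15.625, 62.5 or 250 g/ha. Damage was scored after 13 days on a 0–100 scale (100 = total damage).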

[8] = tested on: redroot pigweed (Amaranthus retroflexus); experiment: Test G Post-Emergence Protocol; conditions: Amaranthus retroflexus, post-emergence, 312 h; for pest or weed control at 15.625 g/ha: 15.625 g ai/ha, evaluated after 13 days (100=total damage to plant; 0=no damage to plant), read-out: Pigweed, Redroot damage rating; for pest or weed control at 62.5 g/ha: 62.5 g ai/ha, read-out: Pigweed, Redroot damage rating (100=total damage to plant; 0=no damage to plant); for pest or weed control at 62.5 g/ha / pest or weed control at 250 g/ha: evaluated after 13 days; for pest or weed control at 250 g/ha: 250 g ai/ha, read-out: damage to plant, Pigweed, Redroot (100=total damage to plant; 0=no damage to plant)
Procedure, shortened: as §2

[9] = tested on: barnyardgrass (Echinochloa crus-galli); experiment: Test G Post-Emergence Protocol; conditions: Echinochloa crus-galli, post-emergence, 312 h; for pest or weed control at 15.625 g/ha: 15.625 g ai/ha, evaluated after 13 days (100=total damage to plant; 0=no damage to plant), read-out: Barnyardgrass damage rating; for pest or weed control at 62.5 g/ha: 62.5 g ai/ha, read-out: Barnyardgrass damage rating (100=total damage to plant; 0=no damage to plant); for pest or weed control at 62.5 g/ha / pest or weed control at 250 g/ha: evaluated after 13 days; for pest or weed control at 250 g/ha: 250 g ai/ha, read-out: damage to plant, Barnyardgrass (100=total damage to plant; 0=no damage to plant)
Procedure, shortened: as §2

[10] = tested on: ivy-leaved morning glory (Ipomoea hederacea); experiment: Test G Post-Emergence Protocol; conditions: Ipomoea, post-emergence, 312 h; for pest or weed control at 15.625 g/ha: 15.625 g ai/ha, evaluated after 13 days (100=total damage to plant; 0=no damage to plant), read-out: Morningglory, Ivy-leaved damage rating; for pest or weed control at 62.5 g/ha: 62.5 g ai/ha, read-out: Morningglory, Ivy-leaved damage rating (100=total damage to plant; 0=no damage to plant); for pest or weed control at 62.5 g/ha / pest or weed control at 250 g/ha: evaluated after 13 days; for pest or weed control at 250 g/ha: 250 g ai/ha, read-out: damage to plant, Morningglory, Ivy-leaved (100=total damage to plant; 0=no damage to plant)
Procedure, shortened: as §2

[11] = tested on: giant foxtail (Setaria faberi); experiment: Test G Post-Emergence Protocol; conditions: Setaria faberi, post-emergence, 312 h; for pest or weed control at 15.625 g/ha: 15.625 g ai/ha, evaluated after 13 days (100=total damage to plant; 0=no damage to plant), read-out: Foxtail, Giant damage rating; for pest or weed control at 62.5 g/ha: 62.5 g ai/ha, read-out: Foxtail, Giant damage rating (100=total damage to plant; 0=no damage to plant); for pest or weed control at 62.5 g/ha / pest or weed control at 250 g/ha: evaluated after 13 days; for pest or weed control at 250 g/ha: 250 g ai/ha, read-out: damage to plant, Foxtail, Giant (100=total damage to plant; 0=no damage to plant)
Procedure, shortened: as §2

[12] = tested on: velvetleaf (Abutilon theophrasti); experiment: Test G Post-Emergence Protocol; conditions: Abutilon theophrasti, post-emergence, 312 h; for pest or weed control at 15.625 g/ha: 15.625 g ai/ha, evaluated after 13 days (100=total damage to plant; 0=no damage to plant), read-out: Velvetleaf damage rating; for pest or weed control at 62.5 g/ha: 62.5 g ai/ha, read-out: Velvetleaf damage rating (100=total damage to plant; 0=no damage to plant); for pest or weed control at 62.5 g/ha / pest or weed control at 250 g/ha: evaluated after 13 days; for pest or weed control at 250 g/ha: 250 g ai/ha, read-out: damage to plant, Velvetleaf (100=total damage to plant; 0=no damage to plant)
Procedure, shortened: as §2

CN1C[C@H](c2ccc(C(F)(F)F)cc2)[C@@H](C(=O)Nc2ccc(F)c(C(F)(F)F)c2)C1=O (racemic) [Compound 1443]
plant injury at 15.625 g/ha (corn (Zea mays) [1]): 0% | plant injury at 62.5 g/ha (corn (Zea mays) [1]): 0% | plant injury at 250 g/ha (corn (Zea mays) [1]): 0% | pest or weed control at 15.625 g/ha [2]: 0% | pest or weed control at 62.5 g/ha [2]: 0% | pest or weed control at 250 g/ha [2]: 0% | pest or weed control at 15.625 g/ha [3]: 0% | pest or weed control at 62.5 g/ha [3]: 0% | pest or weed control at 250 g/ha [3]: 0% | pest or weed control at 15.625 g/ha [4]: 0% | pest or weed control at 62.5 g/ha [4]: 0% | pest or weed control at 250 g/ha [4]: 0% | pest or weed control at 15.625 g/ha [5]: 0% | pest or weed control at 62.5 g/ha [5]: 0% | pest or weed control at 250 g/ha [5]: 0% | pest or weed control at 15.625 g/ha [6]: 0% | pest or weed control at 62.5 g/ha [6]: 0% | pest or weed control at 250 g/ha [6]: 0% | plant injury at 15.625 g/ha (corn (Zea mays) [7]): 0% | plant injury at 62.5 g/ha (corn (Zea mays) [7]): 0% | plant injury at 250 g/ha (corn (Zea mays) [7]): 0% | pest or weed control at 15.625 g/ha [8]: 0% | pest or weed control at 62.5 g/ha [8]: 0% | pest or weed control at 250 g/ha [8]: 0% | pest or weed control at 15.625 g/ha [9]: 0% | pest or weed control at 62.5 g/ha [9]: 0% | pest or weed control at 250 g/ha [9]: 0% | pest or weed control at 15.625 g/ha [10]: 0% | pest or weed control at 62.5 g/ha [10]: 0% | pest or weed control at 250 g/ha [10]: 0% | pest or weed control at 15.625 g/ha [11]: 0% | pest or weed control at 62.5 g/ha [11]: 0% | pest or weed control at 250 g/ha [11]: 0% | pest or weed control at 15.625 g/ha [12]: 0% | pest or weed control at 62.5 g/ha [12]: 0% | pest or weed control at 250 g/ha [12]: 0%

Cc1c(C#N)cccc1NC(=O)[C@H]1C(=O)N(C)C[C@@H]1c1ccc(C(F)(F)F)cc1 (racemic) [Compound 1444]
plant injury at 15.625 g/ha (corn (Zea mays) [1]): 0% | plant injury at 62.5 g/ha (corn (Zea mays) [1]): 0% | plant injury at 250 g/ha (corn (Zea mays) [1]): 50% | pest or weed control at 15.625 g/ha [2]: 0% | pest or weed control at 62.5 g/ha [2]: 40% | pest or weed control at 250 g/ha [2]: 50% | pest or weed control at 15.625 g/ha [3]: 10% | pest or weed control at 62.5 g/ha [3]: 30% | pest or weed control at 250 g/ha [3]: 60% | pest or weed control at 15.625 g/ha [4]: 10% | pest or weed control at 62.5 g/ha [4]: 0% | pest or weed control at 250 g/ha [4]: 40% | pest or weed control at 15.625 g/ha [5]: 50% | pest or weed control at 62.5 g/ha [5]: 80% | pest or weed control at 250 g/ha [5]: 80% | pest or weed control at 15.625 g/ha [6]: 0% | pest or weed control at 62.5 g/ha [6]: 20% | pest or weed control at 250 g/ha [6]: 20% | plant injury at 15.625 g/ha (corn (Zea mays) [7]): 10% | plant injury at 62.5 g/ha (corn (Zea mays) [7]): 10% | plant injury at 250 g/ha (corn (Zea mays) [7]): 10% | pest or weed control at 15.625 g/ha [8]: 10% | pest or weed control at 62.5 g/ha [8]: 10% | pest or weed control at 250 g/ha [8]: 20% | pest or weed control at 15.625 g/ha [9]: 0% | pest or weed control at 62.5 g/ha [9]: 10% | pest or weed control at 250 g/ha [9]: 20% | pest or weed control at 15.625 g/ha [10]: 0% | pest or weed control at 62.5 g/ha [10]: 10% | pest or weed control at 250 g/ha [10]: 10% | pest or weed control at 15.625 g/ha [11]: 0% | pest or weed control at 62.5 g/ha [11]: 60% | pest or weed control at 250 g/ha [11]: 60% | pest or weed control at 15.625 g/ha [12]: 0% | pest or weed control at 62.5 g/ha [12]: 0% | pest or weed control at 250 g/ha [12]: 0%

— patent US12077503B2, “Substituted cyclic amides and their use as herbicides” (FMC CORPORATION, priority 2015, dated 2024)
